Measured values from paper PMC12073159, “Inhibition Mechanism of Mulberry Prenylated Flavonoids Sanggenone D/Kuwanon G Against α-Glucosidase and the Regulation of Glucose via GLUT4 Pathway” (Nutrients, 2025).
Entries after “also recorded” stand apart in the source; their conditions may differ.

Tests used:
α-glucosidase [1] = details: cited from earlier work
p-AMPK = experiment: Western blotting, p-AMPK in HepG2 cells; format: cell-based, human; details: compared with the model group
α-glucosidase [2] = experiment: Fluorescence quenching spectroscopy (Stern–Volmer); format: binding
Experimental: A total of 100 μL of 1 U/mL α-glucosidase extract was mixed with […] of different concentrations (sanggenone D: 0, 1, 5, 10, 20, 50, 60 μg/mL; kuwanon G: 0, 1, 5, 10, 20, 40, 60 μg/mL) and incubated at three temperatures of 298 K, 304 K, and 310 K for 5 min. Then, the mixture were scanned with fluorescence spectroscopy (SpectraMax i3x, Molecular Devices, LLC., San Jose, CA, USA). The excitation wavelength was set at 280 nm, the emission wavelength was 300–500 nm, and the widths of both excitation and emission slits were 5 nm. The fluorescence quenching parameters were calculated according to the following equations.
Stern–Volmer dynamic collision quenching equation:(5) F0/F=1+KSVQ=1+Kqτ0Q (6) lgF0−F/F=lgKa+nlg[Q]
F0 and F represent the fluorescence intensity peaks of α-glucosidase without and with the compound, respectively; [Q] is the sample concentration; and τ0 is the protein’s average lifetime (10^−8 s).

HepG2 cells [3] = experiment: CCK-8 toxicity test of HepG2 cells; format: cell-based, human; details: 24 h
Experimental: DMEM complete medium was configured with 88% DMEM high glucose medium, 10% fetal bovine serum, 1% double antibodies, and 1% non-essential amino acids. HepG2 cells were seeded in the complete medium and incubated at 37 °C with 5% CO2. When the cell confluence grew to 80–90%, the passage was carried out at a ratio of 1:3. According to the method of Cao et al., a hyperglycemic model was established through insulin induction. HepG2 cells in the logarithmic growth stage were inoculated with 4 × 10^4 cells per well in a 96-well plate and cultured at 37 °C and 5% carbon dioxide for 24 h. After the cell coverage reached 80%, 100 µL of sanggenone D and kuwanon G with different concentrations were added for 24 h. Then, 100 µL CCK-8/complete culture solution (1:9) was added to each well, and the absorbance at 450 nm was measured by an enzymoleter after 1 h of culture. The toxicity test was conducted in triplicate.(8) Cell survival rate (%)=Asample/Acontrol×100%

CPT-1 = experiment: Western blotting, CPT-1 expression in HepG2 cells; format: cell-based, human
GLUT4 = experiment: Western blotting, GLUT4 expression in HepG2 cells; format: cell-based, human; details: compared with the model group
Experimental: The tissue proteins were extracted with cold total protein extraction buffer (TPEB) [98% RIPA buffer (Solarbio, Beijing, China), 1% phosphatase inhibitor mix (Sangon Biotech, Shanghai, China), and 1% protease inhibitor mix (Cell Signaling Technology, Danvers, MA, USA)], and protein concentration was determined by the bicinchoninic acid assay (BCA) method. A total of 20 μg of protein samples were separated by SDS-PAGE and transferred to a polyvinylidene difluoride (PVDF) membrane. The membrane was washed with PBST for 5 min, then incubated with 5% skim milk at room temperature for 1 h. Subsequently, the membrane was cleaned with PBST five times for 5 min and incubated overnight at 4 °C with the primary antibodies [ACC (Zenbio #381131; 1:750 dilution), AMPK (Zenbio #380431; 1:500 dilution), p-AMPK (Zenbio #340763; 1:750 dilution), CPT-1 (proteintech #15184-1-AP 1:3000 dilution), and GLUT4 (Zenbio #347063; 1:1000 dilution)]. Finally, the membrane was incubated with the secondary antibody (Abmart #T40104, 1:3000 dilution) at room temperature for 1 h. Chemiluminescent visualization of the protein bands was achieved using an ECL system (Millipore, Burlington, MA, USA) and documented with Image Lab software for PC Version 6.1 (Bio-Rad, South Granville, NSW, Australia). Densitometric analysis of the resulting bands was conducted using ImageJ 2 software.

α-glucosidase [4] = experiment: Inhibition kinetics assay (Lineweaver–Burk); format: biochemical; details: for Inhibition type: Lineweaver–Burk plots; for Ki: inhibitory constant on α-glucosidase
Experimental: The inhibition assay of α-glucosidase was adapted from MORTEZA, with some modification. A total of 50 μL of α-glucosidase solution (1 U/mL) was added to 96-well plates, and 50 μL of sample solution with different concentrations (sanggenone D: 0, 20, 100, 200 μg/mL; kuwanon G: 0, 10, 20, 40 μg/mL) was incubated at 37 °C for 10 min. Subsequently, different concentrations of pNPG solution were added and incubated at 37 °C for 20 min. Finally, sodium carbonate solution (50 μL, […]) was added to terminate the reaction. Colorimetry was performed at 405 nm using a spectrophotometer to determine the change in absorbance of the enzymatic reaction system. The reversible inhibitory effect types of sanggenone D and kuwanon G on the enzyme were analyzed by the Lineweaver–Burk equation. The relevant parameters were calculated using Formulas (2)–(4).
In the formula, V represents the reaction rate, and Vm represents the maximum reaction rate. [I] is the concentration of the compound sample, and [S] is the substrate concentration. Km represents the Michaelis constant, and KI and KIS represent the inhibitory constants of the compound sample on α-glucosidase and the α-glucosidase–substrate complex, respectively.

α-glucosidase [5] = experiment: α-glucosidase inhibitory activity (p-NPG, absorbance at 405 nm); format: biochemical; details: 1 U/mL α-glucosidase, pH 6.8, 37 °C, p-NPG substrate; read-out: IC50 (semi-inhibitory concentration)
Experimental: Subsequently, 50 μL of 2 mmol/L p-NPG was added, and the mixture was incubated at 37 °C for 20 min. Finally, 50 μL of 1 mol/L Na2CO3 was added to an ice bath for 5 min to terminate the reaction. The absorbance was measured at 405 nm, and the α-glucosidase inhibitory activity was calculated according to Formula (1). All experiments were performed in triplicate.(1) Inhibition rate of enzyme activity/%=(1−Aa−Ab/Ac−Ad)×100%
Aa is the absorbance of the sample group, Ab is the absorbance of the sample background group (equal volume of buffer instead of enzyme solution), Ac is the absorbance of the control group (equal volume of buffer instead of the sample solution), and Ad is the absorbance of the control background group (equal volume of buffer instead of the sample and enzyme solution).

HepG2 cells [6] = experiment: Cellular glucose, TC and TG content in high-glucose model HepG2 cells; format: cell-based, human; details: 20, 80 μg/mL, 24 h, compared with the model group
Experimental: DMEM complete medium was configured with 88% DMEM high glucose medium, 10% fetal bovine serum, 1% double antibodies, and 1% non-essential amino acids. HepG2 cells were seeded in the complete medium and incubated at 37 °C with 5% CO2. When the cell confluence grew to 80–90%, the passage was carried out at a ratio of 1:3. According to the method of Cao et al., a hyperglycemic model was established through insulin induction.
The sample concentration (sanggenone D: 20, 80 μg/mL; kuwanon G: 20, 80 μg/mL) used in this experiment was determined by a CCK8 experiment. HepG2 cells were inoculated with 2 × 10^5 in a 12-well plate and cultured for 24 h. After being attached to the well, the samples containing different concentrations were replaced and the cells were treated for 24 h. The relevant indexes were determined by the kit method according to the instructions of the manufacturer. Each measurement was performed in triplicate.

KSV (α-glucosidase [2]; 298 K)	Ka (α-glucosidase [2]; 298 K)	Kq (α-glucosidase [2]; 298 K)	KSV (α-glucosidase [2]; 304 K)	Ka (α-glucosidase [2]; 304 K)	Kq (α-glucosidase [2]; 304 K)	KSV (α-glucosidase [2]; 310 K)	Ka (α-glucosidase [2]; 310 K)	Kq (α-glucosidase [2]; 310 K)	Ki (α-glucosidase [4]) [µM]	IC50 (α-glucosidase [5]) [µM]	SMILES	Expression of CPT-1 (CPT-1)	GLUT4 expression (GLUT4)	Inhibition type (α-glucosidase [4])	Glucose content in HepG2 cells (HepG2 cells [6])	TC content in HepG2 cells (HepG2 cells [6])	TG content in HepG2 cells (HepG2 cells [6])	further results
–	–	–	–	–	–	–	–	–	–	–	COc1cc(/C=C/C(=O)O)ccc1O [ferulic acid]	–	–	–	–	–	–	IC50 for α-glucosidase (α-glucosidase [1]): 866 µg/mL
5.41 ± 0.01 ×10^4 L/mol	36.85 ± 0.17 ×10^3 L/mol	5.41 ± 0.01 ×10^12 L/mol	4.91 ± 0.03 ×10^4 L/mol	194.98 ± 0.42 ×10^3 L/mol	4.91 ± 0.03 ×10^12 L/mol	3.35 ± 0.01 ×10^4 L/mol	1984.27 ± 0.33 ×10^3 L/mol	3.35 ± 0.01 ×10^12 L/mol	83.5	38.3	CC(C)=CCc1c(-c2ccc(O)cc2O)oc2c([C@H]3C=C(C)C[C@@H](c4ccc(O)cc4O)[C@@H]3C(=O)c3ccc(O)cc3O)c(O)cc(O)c2c1=O [kuwanon G]	significantly upregulated	notably up-regulated	competitive inhibition type	significantly reduced	significantly reduced	significantly reduced	p-AMPK (p-AMPK): significantly promoted; Survival percentage of HepG2 cells (HepG2 cells [3]; concentration less than 80 μg/mL): above 90%
3.90 ± 0.04 ×10^4 L/mol	7.28 ± 0.21 ×10^3 L/mol	3.90 ± 0.04 ×10^12 L/mol	3.24 ± 0.02 ×10^4 L/mol	16.73 ± 0.14 ×10^3 L/mol	3.24 ±0.02 ×10^12 L/mol	2.56 ± 0.02 ×10^4 L/mol	180.18 ± 0.30 ×10^3 L/mol	2.56 ±0.02 ×10^12 L/mol	253	45.1	CC(C)=CCC12Oc3cc(O)ccc3C1(O)Oc1cc(O)c(C3C=C(C)CC(c4ccc(O)cc4O)C3C(=O)c3ccc(O)cc3O)c(O)c1C2=O (centres unmarked) [sanggenone D]	significantly upregulated	notably up-regulated	non-competition/anti-competition mixed inhibition; also recorded: mixed inhibition of noncompetitive and anticompetitive	significantly reduced	significantly reduced	significantly reduced	Survival percentage of HepG2 cells (HepG2 cells [3]; concentration less than 100 μg/mL): above 90%
